Results: patent publication US8298782B2, “Reversible MHC multimer staining for functional purification of antigen-specific T cells” (priority 2000, dated 2012)

What was measured:
[1] = test system: LLO91-99-specific T cells; experiment: 51Cr-release cytotoxicity assay of multimer-treated CTLs; format: cell-based
Description: (§1) FIG. 3: Interference of MHC multimer staining with T cell function in vitro. (a) LLO91-99-specific T cells were stained for 2 hours with binding (LLO91-99/H2-K^d) or non-binding (p60217-225/H2-K^d) streptavidin-PE tetramer (“tet”) reagents at 4° C. or 37° C. MHC tetramer staining (upper), TCR expression (middle, filled black graph hidden behind TCR^high populations), and annexin V binding (lower) are shown in histogram format. (b) Immunofluorescence staining of LLO91-99-specific T cells one hour after incubation with LLO91-99/H2-K^d streptavidin-Alexa546 tetramers (red) at 4° C. or 37° C. (c) LLO91-99-specific T cells stained for 30 min with binding or non-binding tetramer reagents at 4° C., were then washed to remove unbound reagent and transferred to a chromium release assay (effector to target ratio approx. 5:1). LLO91-99 peptide concentration and percent specific lysis are shown on the x- and y-axes, respectively. The bars indicate lysis of MHC mismatched target cells (10^−8 M LLO91-99 peptide and no peptide conditions only) by effector cells treated with non-binding MHC tetramer reagents (filled bars) or binding reagents (open bars). (d) LLO91-99-specific T cells were treated as in (c), transferred into a proliferation assay in the presence of syngeneic irradiated splenocytes, and stimulated in the presence of peptide or various mitogens (x-axis).
FIG. 7: Reversible MHC multimer staining and T cell function. LLO91-99-specific T cells were stained for 30 min with binding LLO91-99/H2-K^d Strep-tag® II peptide/β2m-Strep-tag® II peptide-HSV-tag:Strep-Tactin® polypeptide (IBA GmbH) or non-binding (p60217-225/H2-K^d) multimer reagents and then extensively washed over 4 h in the presence or absence or d-biotin (1 mM, all done at 4° C.) prior to assays or adoptive transfer. (a) Staining for recombinant MHC-molecules (detected by epitope-tag staining, x-axis) on differently treated T cells. […] Numbers of viable bacteria (y-axis) were determined 48 h following Lysteria infection. […]

Listeria monocytogenes = experiment: adoptive transfer of multimer-treated T cells, protection against Listeria infection; format: in vivo, BALB/c mice
Description: Six hours later, mice were infected with 2×10^4 Listeria monocytogenes. […] Control mice received NaCl only.
(a) Staining for recombinant MHC-molecules (detected by epitope-tag staining, x-axis) on differently treated T cells. (b) Cytotoxicity (% specific lysis, y-axis) of differently treated T cells in response to LLO91-99 peptide-coated target cells (peptide titration, x-axis) with an effector to target cell ratio of approx. 5:1, compare with FIG. 1c. (c) Proliferation (y-axis) of differently treated T cells stimulated with epitope or various mitogens (indicated on the x-axis) in the presence of syngeneic irradiated splenocytes. Compare with FIG. 1d. (d) Protection against Lysteria monocytogenes infection following adoptive transfer of 4.1×10^6 LLO91-99-specific T cells treated with binding (LLO91-99) or non-binding (p60217-225) MHC multimer reagents (indicated to the left). […] Numbers of viable bacteria (y-axis) were determined 48 h following Lysteria infection. Data are representative of three independent experiments, each with 2 mice per group.
LLO91-99 specific T cells were stained with H2-K^d Strep-tag® II peptide multimer reagents (IBA GmbH) at 4° C. […] Adoptive cell transfer was performed by injection of 1×10^7 cells—per mouse per group—into the tail vein of naive BALB/c mice.

[2] = test system: LLO91-99-specific T cells; experiment: 3H-thymidine incorporation proliferation assay of multimer-treated T cells; format: cell-based; details: reagent remains on the cell surface
Description: FIG. 3: Interference of MHC multimer staining with T cell function in vitro. (a) LLO91-99-specific T cells were stained for 2 hours with binding (LLO91-99/H2-K^d) or non-binding (p60217-225/H2-K^d) streptavidin-PE tetramer (“tet”) reagents at 4° C. or 37° C. MHC tetramer staining (upper), TCR expression (middle, filled black graph hidden behind TCR^high populations), and annexin V binding (lower) are shown in histogram format. (b) Immunofluorescence staining of LLO91-99-specific T cells one hour after incubation with LLO91-99/H2-K^d streptavidin-Alexa546 tetramers (red) at 4° C. or 37° C. (c) LLO91-99-specific T cells stained for 30 min with binding or non-binding tetramer reagents at 4° C., were then washed to remove unbound reagent and transferred to a chromium release assay (effector to target ratio approx. 5:1). LLO91-99 peptide concentration and percent specific lysis are shown on the x- and y-axes, respectively. […]
FIG. 7: Reversible MHC multimer staining and T cell function. […] (a) Staining for recombinant MHC-molecules (detected by epitope-tag staining, x-axis) on differently treated T cells. […] Numbers of viable bacteria (y-axis) were determined 48 h following Lysteria infection. […]

[3] = test system: LLO91-99-specific T cells; experiment: MHC tetramer staining, TCR expression, annexin V binding and immunofluorescence of T cells; format: cell-based
Description: as §1
LLO91-99 specific T cell lines were expanded in vitro as described before (18). MHC-multimer staining was performed by incubation of approximately 2 μg H2-K^d Strep-tag® II peptide multimer reagent (IBA GmbH) per 1×10^6 cells at 4° C. for 30 min. For epitope-tag staining cells were washed, fixed briefly in 1% paraformaldehyde, and subsequently stained for anti-HSV tag using an unconjugated primary mouse or rat mAb (e.g. TB067, Novagen) and a secondary anti-mouse or anti-rat-PE antibody (e.g. A85-1, PharMingen). Flow cytometry was performed using a FACSCalibur (Becton Dickinson) and FlowJo software. […] Conventional ^51Cr-release and ^3H-thymidine incorporation assays were performed as described before (18).
Phenotypic changes of cell populations have not been reported so far following epitope-specific T cell staining at low temperatures (4° C.). Under these conditions, TCR-MHC mediated signalling events become not activated. MHC multimer staining at higher temperatures (e.g. at room temperature (RT), or at 37° C.) has been performed to improve the intensity and/or stabilty of the fluorescent signal through epitope-specific internalization of the multimer. In order to analyze the impact of differential treatment of T cells on their phenotype, we compared LLO91-99-specific T cell lines following staining with LLO91-99/H2-K^d tetramers at 4° C. or 37° C. As a negative control, MHC tetramers containing different Listeria epitope ([…]) were used; these reagents cannot bind to TCRs of LLO91-99-specific T cells, thus controlling for potential peptide-independent effects.

[4] = target: T1, Strep-Tactin® polypeptide (mutated streptavidin) (Streptomyces avidinii, UniProt P22629, E68V/S69T/V71R); details: read-out: Kd of Strep-tag II peptide with Strep-Tactin; cited from earlier work
T1 construct: literature IBA GmbH
T1 sequence (P22629 38-163 E68V/S69T/V71R): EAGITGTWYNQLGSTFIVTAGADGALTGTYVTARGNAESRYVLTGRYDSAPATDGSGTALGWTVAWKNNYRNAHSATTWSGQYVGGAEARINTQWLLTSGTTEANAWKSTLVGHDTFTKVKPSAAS

Row | Substance | lysis in the absence of peptide (spontaneous/bystander lysis) ([1]; reagent not dissociated) | maximum % specific lysis ([1]; stained CTLs washed, then 37° C., constant effector to target ratio) | peptide sensitivity of cytotoxicity ([1]; various concentrations of LLO91-99 peptide) | protection against Listeria infection following adoptive transfer (Listeria monocytogenes; 4.1×10^6 cells, reagent not dissociated) | LLO91-99-specific T cells recovered from recipient mice after transfer (Listeria monocytogenes; compared to control cells) | protection against Listeria infection (viable bacteria in spleen 48 h) (Listeria monocytogenes; transfer of 1×10^6 treated CTLs) | protection against Listeria infection (viable bacteria in spleen 48 h) (Listeria monocytogenes; transfer of 1×10^7 treated CTLs, listed as LLO91-99/H2-K^d tetramer reagents) | protection against Listeria infection (viable bacteria in spleen 48 h) (Listeria monocytogenes; transfer of 1×10^7 treated CTLs, listed as binding MHC tetramers) | proliferation in response to antigen or mitogenic stimulation [2] | MHC tetramer staining ([3]; 2 h incubation at 4° C.) | MHC tetramer staining ([3]; 2 h incubation at 37° C.) | annexin V binding (early marker of apoptosis) ([3]; after staining at 37° C.) | surface TCR expression ([3]; after staining at 37° C.) | immunofluorescence microscopy staining pattern ([3]; incubation at 4° C.) | immunofluorescence microscopy staining pattern ([3]; incubation at 37° C.) | Kd [4] [nM]
1 | LLO91-99/H2-K^d tetramers: conventional tetramers of H2-K^d/LLO91-99 complexes with PE- or Alexa546-conjugated streptavidin | increased lysis in the absence of LLO91-99 peptide addition | reduction in maximum % specific lysis | decreased peptide sensitivity | significantly reduced protection | much lower numbers | indistinguishable from untreated mice | dramatic loss of protective capacity | still confer some significant Listeria-specific protection | poorly proliferate | high intensity staining | reduced and more diffuse staining pattern | increased binding of annexin V | substantial downregulation of surface TCR | typical surface-staining pattern | most multimers are internalized | 
2 | WSHPQFEK [Strep-tag® II peptide] |  |  |  |  |  |  |  |  |  |  |  |  |  |  |  | ~1000
